Experimental findings from patent US20080214623A1, “N-(2,2-Dimethylpropyl)-6- -3-Pyridinecarboxamide” (priority 2005, published 2008) are described below.

The target of one assay is T1, Recombinant human p38α (Homo sapiens, UniProt Q16539).
T1 construct: GST; made in house
Briefly: Fluorescence anisotropy kinase binding assay. Conditions: 12 nM p38α, 5 nM fluorescent ligand. On the procedure:
Assay 1: Fluorescence Anisotropy Kinase Binding Assay
The concentration of kinase enzyme should preferably be 2×Kf. The concentration of fluorescent ligand required will depend on the instrumentation used, and the fluorescent and physicochemical properties. The concentration used must be lower than the concentration of kinase enzyme, and preferably less than half the kinase enzyme concentration.
Recombinant human p38α was expressed as a GST-tagged protein. To activate this protein, 3.5 μM unactivated p38α was incubated in 50 mM Tris-HCl pH 7.5, 0.1 mM EGTA, 0.1% 2-mercaptoethanol, 0.1 mM sodium vanadate, 10 mM MgAc, 0.1 mM ATP with 200 nM MBP-MKK6 DD at 30 degrees for 30 mins. Following activation p38α was re-purified and the activity assessed using a standard filter-binding assay.
All components are dissolved in buffer of composition 62.5 mM HEPES, pH 7.5, 1.25 mM CHAPS, 1 mM DTT, 12.5 mM MgCl2 with final concentrations of 12 nM p38α and 5 nM fluorescent ligand. 30 μl of this reaction mixture is added to wells containing 1 μl of various concentrations of test compound (0.28 nM-16.6 μM final) or DMSO vehicle (3% final) in NUNC 384 well black microtitre plate and equilibrated for 30-60 mins at room temperature. Fluorescence anisotropy is read in Molecular Devices Acquest (excitation 485 nm/emission 535 nm).
Definitions: Ki=dissociation constant for inhibitor binding […]
Background: Fluorescence polarisation rises when a labelled molecule tumbles more slowly, as on binding a larger partner.

In assay [1] the test system is TNFα production in LPS-stimulated leukocytes (human whole blood). Briefly: TNFα production in human whole blood (LPS-stimulated). Conditions: Leukocyte, 1 hr preincubation, LPS 50 ng/ml, 20 hours. It counts as cell-based. The source says: Assay 2: TNFα Production in Human Whole Blood
p38 Mitogen-activated protein (MAP) kinase (p38) regulates the biosynthesis of pro-inflammatory cytokines such as TNFα. The potency as an inhibitor of cytokine production can thus be assessed by measuring the effects on TNFα production in LPS-stimulated leukocytes. Carrying the assay out on whole blood rather than isolated leukocytes gives a measure of whole cell potency of the compound in the presence of plasma protein and cells, particularly red blood cells that in vivo are likely to lower circulating free drug concentrations. […] The concentrations of TNF in the original whole blood assay supernatants can then be determined from a standard curve generated using authentic human TNFα.
Heparinised blood drawn from normal volunteers was dispensed (100 μl) into microtitre plate wells containing 0.5 or 1.0 μl of an appropriately diluted compound solution. […] Plasma TNFα content was determined by electrochemiluminescence assay using the IGEN technology. […]
TNF assay plates (MSD: cat L41IB-1) were blocked overnight with 20 μl human serum cytokine diluent (MSD). […] 150 μl 2× read buffer T (MSD Cat R92TC-1) was added to the whole blood plates and 90 μl 2.5× read buffer P (MSD Cat R92PC-1) to the PBMC plates and all plates read in the MSD Sector Imager 6000 electrochemiluminescence reader.

In general, IC50 refers to the concentration at which inhibition is half-maximal.

Where only a bound is given, the exact number is not on record here.

T1 sequence (Q16539 whole entry): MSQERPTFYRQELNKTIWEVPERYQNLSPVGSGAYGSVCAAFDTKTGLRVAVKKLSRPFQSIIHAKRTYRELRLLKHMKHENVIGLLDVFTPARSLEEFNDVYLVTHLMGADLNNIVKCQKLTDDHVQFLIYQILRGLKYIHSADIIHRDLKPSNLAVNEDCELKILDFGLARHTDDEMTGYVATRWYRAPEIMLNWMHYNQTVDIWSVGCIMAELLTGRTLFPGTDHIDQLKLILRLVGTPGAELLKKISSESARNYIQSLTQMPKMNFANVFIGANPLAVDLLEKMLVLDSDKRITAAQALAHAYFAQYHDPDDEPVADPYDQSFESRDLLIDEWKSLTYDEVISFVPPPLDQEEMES

Take `Cc1c(F)cc(C(=O)Nc2ccon2)cc1-c1ccc(C(=O)NCC(C)(C)C)cn1` [Example 1]: the IC50 (on Recombinant human p38α; in assay [1]) was less than 50 nM in each case.
